Entries after “also recorded” stand apart in the source; their conditions may differ. One block for each molecule: values may come before it.
Experiments:
aromatase = assay: Aromatase immunohistochemistry in human neuroblastoma SH-SY5Y cells exposed to BPA with or without 10-HDA; format: cell-based; settings: for effect on BPA-induced changes of aromatase expression pattern and neurites: 25 μg/L BPA + 1 mM 10 HDA
Method: FIG. 1: Effects of BPA and 10-HDA on aromatase expression in human neuroblastoma SH-SY5Y cells. Under normal conditions, SH-SY5Y cells express aromatase which is a membrane bound protein in endoplasmic reticulum, and appears as green punctate staining eventually distributed within the cell by immunohistochemistry. In the presence of 25 μg/L bisphenol A the aromatase became aggregates. The effects of bisphenol A can be ameliorated by addition of 10HDA. (a) +0 μg/L BPA (Vehicle)—Clear staining of aromatase (green) evenly distributed in the cytoplasm and along the neurites, as tiny “dots”. A lot of healthy cells evenly distributed over the surface area of the coverslip. B-tubulin (red) is highly expressed throughout the cytoplasm and neurites. […] A decrease in 13-tubulin expression was also observed in most cells that have lost their neurites. […] (c) +25 μg/L BPA+1 mM 10 HDA—Good neurite growth and even aromatase distribution throughout the cytoplasm was observed.
Human neuroblastoma SHY-SY-5Y cells were cultured were cultured in Dulbecco's Modified Eagle Medium supplemented with 10% heat-inactivated Fetal Bovine Serum, 1% penicillin and 1% L-Glutamine at 37° C. in a humidified atmosphere of 95% air and 5% CO2. The localization of aromatase in these cells can be detected using immunohistochemistry with antibody specific to aromatase. Under normal conditions, aromatase appears as punctuate staining throughout the cells, as it is a membrane bound protein in the endoplasmic reticulum.

BPA exposed mice = assay: 10-HDA treatment of BPA exposed mice: social interaction and spontaneous grooming; format: in vivo, mouse
Method: As described in Example 2, mice with autistic-like behaviour were generated by mating female wild type FVBN mice with male CYP19-GFP mice and followed by subcutaneous injection of 50 […] of BPA on gestational days 10.5 to 14.5.
After weaning, control and BPA exposed pups were administered 10-HDA daily (0 and 500 μg/kg/day; dissolved in saline) by intraperitoneal injection for a maximum period of 6 weeks. Six litters were initially studied after 3 weeks of daily treatment for anxiety, memory, social interaction (FIG. 4A) and spontaneous grooming.
Data collection was conducted by investigators who were blind to the respective genotypes or treatment of any given animal. Two criteria were assessed as the basis for the behavioural studies, social interaction, and spontaneous grooming activity.
(§1) With regard to the social interaction study, the test mouse was placed in a social test box, a three-chambered clear plastic box with doorways in the dividing walls to allow access into each chamber. Each side-chamber contained a wire cage. The test mouse was evaluated over three sessions. In session 1, the test mouse was placed in the middle chamber and allowed to explore all 3 chambers for 10 min. In session 2, an unfamiliar same sex and age mouse (stranger 1) was enclosed in the wire cage either side of the central chamber, and the test mouse was allowed to explore the entire social test box for a period of 10 min. In session 3, a new unfamiliar mouse was placed in the previously empty wire cage such that the test mouse has a choice between the first, now familiar, already-investigated mouse (stranger 1) and the novel unfamiliar mouse (stranger 2). Mouse movements were recorded and tracked using the TopScan video tracking system. Durations in each chamber, time spent sniffing each wire cage, and the number of transitions between chambers were analysed.
Spontaneous Grooming activity was used as a measure of repetitive activity. The spontaneous grooming of the mice were recorded by the TopScan video tracking system during the session 1 or the 3 chamber studies described above. The duration and frequency of grooming were the parameters of measurements and analysed blind.
The male animals were then re-administered with either vehicle or 10-HDA as described above for 3 weeks, and subjected to behavioural studies again (FIG. 4C).

[1] = tested on: aromatase cells in the amygdala; assay: Patch clamping of aromatase cells in the amygdala in brain slices of treated mice; format: in vivo, mouse
Excerpt: After behaviour studies, the animals were sacrificed and electrophysiological data were gathered from the brain slices by patch clamping of aromatase cells in the amygdala.

[2] = tested on: neurons in the somatosensory cortex; assay: Dendritic length of neurons in the somatosensory cortex of treated mice; format: in vivo, mouse; settings: BPA exposed mice with 10-HDA treatment
primary cortical culture = assay: Primary cortical cell cultures of male mouse embryonic foetuses: dendritic length and spine densities; format: cell-based
Method: Primary cortical culture was prepared from male mouse foetuses at embryonic day 15.5. Specifically, the effects of BPA and 10-HDA on dendritic length and spine densities were assessed. Four test groups were assessed, mice treated with BPA, mice treated with 10-HDA, mice treated with BPA and 10-HDA, and a vehicle control. Ten neurons were measured and the experiments were duplicated.

[3] = tested on: differentiated mouse motor neuronal NSC-34 cells; assay: Protection of NSC-34 cells from toxic BPA exposure, MTT assay; format: cell-based; settings: 1 mM compound, 500 ng/ml of BPA, MTT assay 72 hours later
Method: To compare the respective activities of trans and cis 10-HDA 1 mM respectively of cis or trans 10-HDA in the presence of 500 ng/ml of BPA (toxic level) was added to differentiated mouse motor neuronal NSC-34 cells. Cell survival was determined by MTT assay 72 hours later.

mice = assay: In utero BPA exposure of mice: offspring social interaction and stereology neuron counts; format: in vivo, mouse
Method: BPA (50 μg/kg) was thus administered to pregnant mice mid-gestation (i.e. embryonic days 10.5 to 14.5). […] A further study was conducted to examine the effects of BPA exposure on numbers of aromatase-GFP positive neurons in utero (FIG. 3). The medial amygdala is involved in social interaction and highly expressed aromatase.
as §1

[4] = BPA, male mouse embryonic day 15.5 cortical neurons

SMILES: O=C(O)/C=C/CCCCCCCO [10-HDA, 10-hydroxy-2-decenoic acid]
effect on BPA-induced changes of aromatase expression pattern and neurites (aromatase; SH-SY5Y cells): can protect against the denaturing effect of bisphenol A on aromatase
effect on BPA-induced changes of aromatase expression pattern and neurites (aromatase; SH-SY5Y cells, listed as 10HDA): ameliorates the effects of BPA on the expression pattern of aromatase and neurites
social interaction deficit and autistic-like behaviour (BPA exposed mice; BPA exposed animals, 10-HDA 500 μg/kg/day intraperitoneal daily, 3 weeks): could ameliorate the social interaction deficit and autistic-like behaviour
excessive grooming (BPA exposed mice; BPA exposed male offspring, 10-HDA treatment 3 weeks): ameliorated
social interaction after treatment withdrawal (BPA exposed mice; BPA-exposed male animals, treatments withdrawn for 3 months): withdrawal led to presentation of social interaction deficit
resistance of the neurons ([1]; BPA exposed mice with 10-HDA treatment): restored resistance to normal
dendritic length of the neurons [2]: restored the dendritic length of the neurons in the somatosensory cortex to normal length
effect against BPA on spine density and dendritic length (primary cortical culture; BPA and 10-HDA): reverse or protect against the effect of BPA
neurites and spines formation (primary cortical culture; primary cortical culture): has the capacity to stimulate neurites and spines formation
cell survival (protection against BPA toxicity) [3]: exhibits neuroprotective effects

SMILES: O=C(O)/C=C\CCCCCCCO [cis 10-HDA]
cell survival (protection against BPA toxicity) [3]: does not protect against BP toxicity

β-tubulin expression (aromatase; 25 μg/L BPA, SH-SY5Y cells that have lost their neurites): decrease
ASD-like behaviours (mice; BPA 50 μg/kg to pregnant mice embryonic days 10.5 to 14.5, WT male offspring): exhibit ASD-like behaviours
time spent with the stranger mice (social interaction) (mice; BPA 50 μg/kg to pregnant mice embryonic days 10.5 to 14.5, male offspring vs vehicle exposed male or BPA exposed female offspring): significantly less time
numbers of aromatase-GFP positive neurons (mice; BPA exposure in utero, standard Stereology method): significantly reduced
fewer neurons in the medial amygdala (mice; male offspring exposed to BPA): 13.5%
grooming (BPA exposed mice; 50 μg/kg/day of BPA exposed male offspring): excessive grooming
resistance of the neurons ([1]; BPA exposure, patch clamping of brain slices): reduced the resistance of the neurons
dendritic length of neurons (primary cortical culture; [4]): decreased
spine density (primary cortical culture; [4]): decreased
SMILES: CC(C)(c1ccc(O)cc1)c1ccc(O)cc1 [BPA, bisphenol A]
neurites (aromatase; 25 μg/L BPA, SH-SY5Y cells): Some populations of cells are starting to lose their neurites
aromatase localization/staining pattern (aromatase; 25 μg/L BPA, SH-SY5Y cells, immunohistochemistry): aromatase forms aggregate and will lose its function; also recorded: could denature aromatase in vitro; also recorded: Aromatase aggregates start to form
